We go through 37 molecules from EPA's ToxValDB 9.5.

≈ marks a conversion by molar mass, not a printed value.

For series [1], the system named is Mus musculus.
The subject of series [2] is Oryctolagus sp.
The subject of series [3] is Oncorhynchus mykiss.
In series [4] the test system is Tagia sp.
Series [5] has as its system Apis mellifera. The conditions noted are these: acute, mortality.
For series [6], the system named is Colinus virginianus. The note with it: for LD50: acute, oral, mortality.
Series [7] deals with Rattus norvegicus.
The subject of series [8] is Canidae. The conditions noted are these: Dog Other.
Series [9] has as its system Sus scrofa. The note with it: oral, diet, Not specified.
For series [10], the system named is Gallus gallus. The conditions noted are these: oral, diet.
Series [11] concerns Pontoscolex corethrurus. The conditions noted are these: acute; mortality.
Series [12] relates to Meleagris sp. The conditions noted are these: not reported; no effects.
Series [13] relates to Bibionidae. The conditions noted are these: chronic/long-term; duration: 28 days; other.
Series [14] concerns Daphnia magna.
For series [15], the system named is Typhlodromus pyri. The series can be described thus: LR50; higher = less toxic. The note with it: not reported; mortality.
Series [16] deals with Homo sapiens. The note with it: clinical.
Series [17] concerns Anas platyrhynchos. The conditions noted are these: oral, mortality.
The test system of series [18] is Danio rerio. The note with it: acute; duration: 96 hours; mortality.
Series [19] deals with Bovidae. The conditions noted are these: oral.
Setting [20] is: acute, duration: 96 hours, mortality.
The mark [21] stands for this setting: subchronic, duration: 90 days, oral, hematological.
The mark [22] stands for this setting: chronic, duration: 21 months, M, hematological.
Where [23] appears, read: chronic, duration: 23 months, F, hematological.
[24] abbreviates: subchronic, duration: 90 days, F, clinical chemistry.
Setting [25] is: chronic, duration: 2 years, oral, diet.
Where [26] appears, read: short-term, duration: 28 days, mortality.
Where [27] appears, read: subchronic, duration: 90 days, oral, clinical chemistry.
[28] abbreviates: repeat dose other, hematological.

The term NOAEL denotes the highest tested level that showed no adverse finding. Consider `CC(O)(Cn1cncn1)c1ccc(Oc2ccc(Cl)cc2)cc1C(F)(F)F` (stereo unspecified) [Mefentrifluconazole], for which the NOAEL in [1] (chronic, duration: 18 months, organ weight) is 3.5 mg/kg-day; in series [1] (subchronic, duration: 90 days, organ weight) it was 2 mg/kg-day; in series [2] (developmental, development), 15 mg/kg-day.

Consider `Oc1cccc2cccnc12` [8-Hydroxyquinoline], for which the LC50 in series [3] (setting [20]) was 2 mg/L (≈ 13.8 µM); in series [4] (acute, mortality), above 409 mg/kg. The LD50 in series [5] (oral, unspecified) was above 68.6 µg/piece; in series [6] (diet), above 1070 mg/kg-day; in series [6] it was 311 mg/kg; in series [1] (acute, oral, mortality), 177 mg/kg. Further, the NOAEL in series [7] (chronic, duration: 2 years, body weight) is 73.3 mg/kg-day; in series [7] (setting [21]) it was 97.7 mg/kg-day; in series [2] (developmental, development), 5 mg/kg-day.

On to `CSCc1ccsc1` [3-(Methylthio)methylthiophene], for which the NOAEL in [7] (subchronic, duration: 90 days) is 0.29 mg/kg-day and the NOAEL (repeat dose other) came out at 0.29 mg/kg-day.

In the case of `CCN(CC)c1ccc(C(=C2C=CC(=[N+](CC)CC)C=C2)c2cc(O)c(S(=O)(=O)[O-])cc2S(=O)(=O)[O-])cc1.CCN(CC)c1ccc(C(=C2C=CC(=[N+](CC)CC)C=C2)c2cc(O)c(S(=O)(=O)[O-])cc2S(=O)(=O)[O-])cc1.[Ca+2]` [Acid Blue 3], the NOAEL in series [1] (setting [22]) and in [1] (setting [23]) was 500 mg/kg-day each time.

Usually LOAEL stands for the lowest dose or exposure tested at which an adverse effect was seen. For the molecule `C[C@@H]1Cc2c(Cl)cc(C(=O)N[C@@H](Cc3ccccc3)C(=O)O)c(O)c2C(=O)O1` [Ochratoxin A], the LEL in [8] (short-term, duration: 14 days, histopathology: nonneoplastic) was found to be 0.2 mg/kg-day; in series [10] (repeat dose other, organ weight), 0.5 mg/kg-day. In [9] (setting [24]), this molecule had an LOAEL of 0.008 mg/kg-day. Further, the LOEL in series [9] (setting [24]) is 0.008 mg/kg-day.

Regarding `c1cnc2c(n1)CCCC2` [5,6,7,8-Tetrahydroquinoxaline], the LC50 in [11] amounted to 238 mg/kg.

The molecule `CCCCCCCCC(=O)NCc1ccc(O)c(OC)c1` [N-Vanillylnonanamide] yielded an NOAEL in [7] (subchronic, duration: 90 days, oral, M/F) of 8.4 mg/kg-day. In addition, the NOEL (repeat dose other) amounted to 8.4 mg/kg-day.

As to `O=[N+]([O-])c1ccc([As](=O)(O)O)cc1` [Nitarsone], the LEL is 750 mg/kg in series [12] and 37.5 mg/kg-day in [8] (subchronic, duration: 90 days, oral, diet, no effects). For the same molecule, the NOEL in series [7] (chronic, duration: 2 years, oral, diet, M/F, Long-Evans, histopathology: nonneoplastic) was 2 mg/kg-day.

`CC(c1ccc(C(F)(F)F)nc1)S(C)(=O)=NC#N` (stereo unspecified) [Sulfoxaflor]: the LD50 in [5] (duration: 48 hours, oral, unspecified) turned out to be 0.146 µg/piece; in [5] (duration: 72 hours, dermal) it was 0.397 µg/piece.

In turn, `CCCCC(CC)COC(=O)C1CCC(C(=O)OCC(CC)CCCC)CC1` (stereo unspecified) [Bis(2-ethylhexyl) cyclohexane-1,4-dicarboxylate] registered an NOAEL (subchronic, duration: 90 days, oral, no effects) of 1000 mg/kg-day.

`COC(=O)CCC(=O)O[C@H]1CC(C)(C)C(/C=C/C(C)=C/C=C/C(C)=C/C=C/C=C(C)/C=C/C=C(C)/C=C/C2=C(C)C(=O)[C@@H](OC(=O)CCC(=O)OC)CC2(C)C)=C(C)C1=O` [Astaxanthin dimethylsuccinate] showed an LEL in [3] (chronic/long-term, duration: 8 weeks, oral, feed, no effects) of 908 mg/kg. In series [1] (chronic, duration: 80 weeks, oral, body weight), this molecule registered an NOAEL of 14 mg/kg-day.

For `CC(C)C1(C)N=C(c2nc3ccccc3cc2C(=O)O)NC1=O` (stereo unspecified) [Imazaquin], the NOEC in series [3] (chronic/long-term, duration: 28 days, growth) came to 51.2 mg/L; in series [4] (chronic/long-term, duration: 56 days) it was 0.0275 mg/kg; in series [13], 228 mg/kg; in [6] (reproduction developmental), 16.6 mg/kg-day; in series [14] (chronic/long-term, duration: 21 days, reproduction) it was 100 mg/L. The NOAEL in series [8] (chronic, duration: 1 years, oral, clinical signs) was 25 mg/kg-day; in series [2] (reproduction developmental, mortality), 250 mg/kg-day. The same molecule displayed an LR50 in series [15] above 4 g/ha.

`CCCC(=O)C(CC)Sc1ccoc1C` (stereo unspecified) [3-(2-Methyl-3-furylthio)-4-heptanone] returned an NOAEL in series [7] (subchronic, duration: 90 days, oral, diet) of 3.76 mg/kg-day; a no-observed-adverse-effect level (NOAEL) in series [7] (subchronic, duration: 90 days, oral, diet, M/F, no effects) of 3.76 mg/kg-day; an NOAEL (subchronic, duration: 90 days) of 3.76 mg/kg-day.

Regarding `N#Cc1nn(-c2c(Cl)cc(C(F)(F)F)cc2Cl)c(N)c1S(=O)C(F)(F)F` (stereo unspecified) [Fipronil], the LD50 in series [5] (dermal) came out at 0.00593 µg/piece; in series [5] (oral, unspecified), 0.00417 µg/piece.

Molecule `CCC=C(C)C(=O)O` [2-Methylpent-2-en-1-oic acid] had an LC50 in series [11] of 2040 mg/kg.

`CN1CCCC1` [N-Methylpyrrolidine] gave a no-observed-adverse-effect level (NOAEL) in [7] (setting [25]) of 50 mg/kg-day, an NOAEL in [7] (setting [26]) of 50 mg/kg-day and a no-observed-adverse-effect level (NOAEL) (reproduction developmental) of 50 mg/kg-day.

Molecule `[O-][Cl+2]([O-])[O-]` [Chlorate] displayed an NOEL in [16] (duration: 12 weeks, oral, drinking water, M, no effects) of 0.036 mg/kg-day.

On to `O=c1c2cc(F)ccc2nc(-n2cncn2)n1-c1ccc(Cl)cc1Cl` [Fluquinconazole], for which the LD50 in series [17] (acute, unspecified) is above 2000 mg/kg-day; in series [17] (short-term, feed), above 210 mg/kg-day; in series [6], above 2000 mg/kg-day; in series [7] (acute, mortality), above 112 mg/kg-day. The NOEL in series [6] (chronic) is 1.9 mg/kg-day. For the same molecule, the NOAEL in series [7] (chronic) was 0.9 mg/kg-day.

In series [14] (acute, mortality), `CC(=O)c1cc(C)sc1C` [3-Acetyl-2,5-dimethylthiophene] registered an LC50 of 6.95 mg/L (≈ 45.1 µM).

Regarding `CCc1ncc(C)nc1CC` [Pyrazine, 2,3-diethyl-5-methyl-], the LC50 in series [11] amounted to 228 mg/kg.

For the molecule `O=C1O[C@H]([C@@H](O)CO)C(O)=C1O` [L-Ascorbic acid], the results for the LC50 in series [3] (setting [20]) and in series [18] were 1020 mg/L (≈ 5790 µM) and 32 mg/L (≈ 182 µM), respectively.

`O=S(=O)([O-])c1cc(S(=O)(=O)[O-])c2c(N=Nc3ccc(S(=O)(=O)[O-])c4ccccc34)c(O)ccc2c1.[Na+].[Na+].[Na+]` [C.I. Acid Red 18, trisodium salt] registered an NOAEL in [1] (chronic, duration: 82 weeks, oral, diet, M/F, neurology) of 70 mg/kg-day.

For the molecule `c1ccc(Nc2ccccc2)cc1` [Diphenylamine], the LC50 stood at 2.2 mg/L (≈ 13 µM) in series [3] (setting [20]) and 2290 mg/kg-day in series [17] (short-term, feed). Also, the NOEC is 0.71 mg/L in [3] (setting [20]) and below 0.38 mg/L in [14] (acute, duration: 48 hours, mortality). For the same molecule, the LD50 in series [6] is above 2250 mg/kg-day. The NOAEL in series [8] (chronic, duration: 1 years, oral, clinical chemistry) is 10 mg/kg-day; in series [8] (chronic, duration: 1 years, oral, hematological), 10 mg/kg-day; in series [8] (setting [27]) it was 10 mg/kg-day; in series [8] (setting [21]), 10 mg/kg-day; in [7] (chronic, duration: 2 years, hematological), 7.5 mg/kg-day; in series [7] (setting [27]), 9.6 mg/kg-day. The molecule further displayed a no observed adverse effect level (NOAEL) in [7] (setting [21]) of 9.6 mg/kg-day.

`Cc1cccc2nccnc12` [5-Methylquinoxaline] registered an LC50 in [11] of 272 mg/kg.

Turning to `CC1=C(/C=C/C(C)=C/C=C/C(C)=C/C=C/C=C(C)/C=C/C=C(C)/C=C/C2=C(C)C(=O)CCC2(C)C)C(C)(C)CCC1=O` [Canthaxanthin], the no-observed-adverse-effect level (NOAEL) in [16] (ophthalmoscopic examination) turned out to be 0.25 mg/kg-day.

In series [11], `COc1cc(CCC(C)=O)ccc1O` [4-(4-Hydroxy-3-methoxyphenyl)-2-butanone] came in with an LC50 of 346 mg/kg.

With `C1CCC(SSC2CCCCC2)CC1` [Dicyclohexyl disulfide], the NOAEL (subchronic, duration: 90 days, oral) is 0.23 mg/kg-day.

`CCCCCCCCCCCCN(C)C` [N,N-Dimethyldodecan-1-amine] had an NOAEL in series [7] (setting [25]) of 50 mg/kg-day, a no observed adverse effect level (NOAEL) in series [7] (setting [26]) of 50 mg/kg-day and an NOAEL (reproduction developmental) of 50 mg/kg-day.

`COc1nc(C)nc(N)n1` [2-Methyl-4-amino-6-methoxy-s-triazine] yielded an LD50 (acute, dermal, F, mortality) of 1000 mg/kg. The molecule further showed an LC50 (acute, inhalation, mortality) above 5.2 mg/L.

Turning to `CC/C=C\CCCCC=O` [(Z)-Non-6-enal], the LC50 in series [14] (acute, mortality) was determined as 8 mg/L (≈ 57.1 µM); in series [11], 191 mg/kg.

Take `O=N[O-]` [Nitrite ion]: the NOAEL in series [19] (setting [28]) and in series [9] (setting [28]) was 3.3 mg/kg-day each time. The molecule also yielded an NOEL in series [7] (chronic, duration: 2 years, oral, drinking water, gross pathology) of 6.7 mg/kg-day.

For the molecule `CCCC(CCC)C(=O)O` [Valproic acid], under “repeat dose other, development”, the NOAEL was found to be 600 mg/kg-day.

As for `CCc1nc(C)cs1` [Thiazole, 2-ethyl-4-methyl-], the LC50 in series [11] turned out to be 193 mg/kg.

Molecule `CCc1nccnc1OC` [Pyrazine, 2-ethyl-3-methoxy-] gave an LC50 in series [11] of 243 mg/kg.

Consider `CCN(CC)c1ccc(C(=C2C=CC(=[N+](CC)CC)C=C2)c2cc(O)c(S(=O)(=O)[O-])cc2S(=O)(=O)[O-])cc1.[Na+]` [C.I. Food Blue 5:2], for which the no observed adverse effect level (NOAEL) in [1] (setting [22]) and in series [1] (setting [23]) was 500 mg/kg-day each time.

As for `CSCCC(O)C(=O)[O-].CSCCC(O)C(=O)[O-].[Zn+2]` (stereo unspecified), the LEL in [19] (subchronic, duration: 57 days, diet, no effects) worked out at 450 mg/kg-day; in series [9] (subchronic, duration: 42 days, M/F, body weight) it was 450 mg/kg-day; in [10] (subchronic, duration: 8 weeks, clinical chemistry), 450 mg/kg-day; in [10] (subchronic, duration: 35 days, Chicken, body weight) it was 450 mg/kg-day.

In the case of `CCOC(=O)C(CC)C(C)=O` (stereo unspecified) [Butanoic acid, 2-ethyl-3-oxo-, ethyl ester], the NOAEL (repeat dose other, development) came out at 600 mg/kg-day.
